Laboratory results: PubChem BioAssay AID328 (DTP/NCI, 2004)
Where “and” joins values, the source holds several entries; their conditions need not be identical. Equal entries are not always repeated. Toxic doses and inconclusive results are not listed.

System: BDF1 mice, P388 leukemia ip, median survival T/C
Assay: NCI In Vivo Anticancer Drug Screen. Data for tumor model P388 Leukemia (intraperitoneal) in B6D2F1 (BDF1) mice
Conditions: endpoint: median survival time, higher = longer survival
In short: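 Vehicle-dosed animals serve as the reference; survival of compound-dosed, tumour-implanted mice is divided by it.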

[1] = dose: 100.0 mg/kg/injection, schedule: Q01DX009 (ip), vehicle: Klucel (hydroxypropylcellulose) (HPC)
[2] = dose: 200.0 mg/kg/injection, schedule: Q01DX009 (ip), vehicle: Klucel (hydroxypropylcellulose) (HPC)
[3] = dose: 100.0 mg/kg/injection, schedule: Q04DX003 (ip), vehicle: saline with Tween-80
[4] = dose: 200.0 mg/kg/injection, schedule: Q04DX003 (ip), vehicle: saline with Tween-80
[5] = dose: 400.0 mg/kg/injection, schedule: Q04DX003 (ip), vehicle: saline with Tween-80
[6] = dose: 50.0 mg/kg/injection, schedule: Q01DX009 (ip), vehicle: Klucel (hydroxypropylcellulose) (HPC)
[7] = dose: 50.0 mg/kg/injection, schedule: Q04DX003 (ip), vehicle: Klucel (hydroxypropylcellulose) (HPC)
[8] = dose: 100.0 mg/kg/injection, schedule: Q04DX003 (ip), vehicle: Klucel (hydroxypropylcellulose) (HPC)
[9] = dose: 100.0 mg/kg/injection, schedule: Q01DX009 (ip), vehicle: saline with Tween-80
[10] = dose: 200.0 mg/kg/injection, schedule: Q04DX003 (ip), vehicle: saline sonified
[11] = dose: 50.0 mg/kg/injection, schedule: Q01DX009 (ip), vehicle: saline with Tween-80
[12] = dose: 25.0 mg/kg/injection, schedule: Q01DX009 (ip), vehicle: saline with Tween-80

Compound: CCOC(=S)Nc1ccc(F)cc1
- T/C (dose: 33.7 mg/kg/injection, schedule: Q01DX009 (ip), vehicle: saline with Tween-80): 94 % of control
- T/C (dose: 67.5 mg/kg/injection, schedule: Q01DX009 (ip), vehicle: saline with Tween-80): 103 % of control
- T/C (dose: 135.0 mg/kg/injection, schedule: Q01DX009 (ip), vehicle: saline with Tween-80): 102 % of control

Compound: CCOC(=O)c1sc(NC(C)=O)c(C(=O)OCC)c1C
- T/C [1]: 100 % of control
- T/C [2]: 100 % of control
- T/C (dose: 400.0 mg/kg/injection, schedule: Q01DX009 (ip), vehicle: Klucel (hydroxypropylcellulose) (HPC)): 100 % of control

Compound: NC(=S)N/N=C\c1nccc2c(C(F)(F)C(F)(F)C(F)(F)F)cccc12
- T/C [3]: 110 % of control
- T/C [4]: 98 % of control
- T/C [5]: 88 % of control

Compound: C[N+](C)(Cn1nc(Cl)c2ccc([N+](=O)[O-])cc21)Cn1nc(Cl)c2ccc([N+](=O)[O-])cc21
- T/C [3]: 100 % of control
- T/C [4]: 108 % of control

Compound: O=C(O)CCSc1ccccc1
- T/C [6]: 90 % of control
- T/C [7]: 95 % of control
- T/C [1]: 100 % of control
- T/C [8]: 100 % of control
- T/C [2]: 109 % of control
- T/C (dose: 200.0 mg/kg/injection, schedule: Q04DX003 (ip), vehicle: Klucel (hydroxypropylcellulose) (HPC)): 100 % of control

Compound: Cc1cc(C=O)c(O)c(C=O)c1
- T/C (dose: 100.0 mg/kg/injection, schedule: Q04DX002 (ip), vehicle: saline with Tween-80): 112 % of control
- T/C (dose: 200.0 mg/kg/injection, schedule: Q04DX002 (ip), vehicle: saline with Tween-80): 110 % of control
- T/C (dose: 400.0 mg/kg/injection, schedule: Q04DX002 (ip), vehicle: saline with Tween-80): 109 % of control

Compound: COc1ccc(/C=C(/C#N)C(N)=O)cc1Br
- T/C (dose: 100.0 mg/kg/injection, schedule: Q01DX001 (ip), vehicle: Klucel (hydroxypropylcellulose) (HPC)): 100 % of control
- T/C (dose: 100.0 mg/kg/injection, schedule: Q01DX009 (ip), vehicle: saline): 100 % of control
- T/C (dose: 100.0 mg/kg/injection, schedule: Q04DX003 (ip), vehicle: saline): 100 % of control
- T/C (dose: 200.0 mg/kg/injection, schedule: Q01DX001 (ip), vehicle: Klucel (hydroxypropylcellulose) (HPC)): 113 % of control
- T/C (dose: 200.0 mg/kg/injection, schedule: Q01DX009 (ip), vehicle: saline): 95 % of control
- T/C (dose: 200.0 mg/kg/injection, schedule: Q04DX003 (ip), vehicle: saline): 120 % of control
- T/C (dose: 400.0 mg/kg/injection, schedule: Q01DX001 (ip), vehicle: Klucel (hydroxypropylcellulose) (HPC)): 109 % of control
- T/C (dose: 400.0 mg/kg/injection, schedule: Q01DX009 (ip), vehicle: saline): 90 % of control
- T/C (dose: 400.0 mg/kg/injection, schedule: Q04DX003 (ip), vehicle: saline): 120 % of control

Compound: O=C(O)CCC1(c2ccccc2)CCCC1=O (stereo not given)
- T/C (dose: 0.39 mg/kg/injection, schedule: Q01DX009 (ip), vehicle: water): 95 % of control
- T/C (dose: 0.39 mg/kg/injection, schedule: Q04DX003 (ip), vehicle: water): 104 % of control
- T/C (dose: 0.78 mg/kg/injection, schedule: Q01DX009 (ip), vehicle: water): 87 % of control and 122 % of control
- T/C (dose: 0.78 mg/kg/injection, schedule: Q04DX003 (ip), vehicle: water): 100 % of control
- T/C (dose: 1.56 mg/kg/injection, schedule: Q01DX009 (ip), vehicle: water): 101 % of control and 103 % of control
- T/C (dose: 1.56 mg/kg/injection, schedule: Q04DX003 (ip), vehicle: water): 97 % of control
- T/C (dose: 3.12 mg/kg/injection, schedule: Q01DX009 (ip), vehicle: water): 88 % of control
- T/C (dose: 3.12 mg/kg/injection, schedule: Q04DX003 (ip), vehicle: water): 97 % of control
- T/C (dose: 6.25 mg/kg/injection, schedule: Q01DX009 (ip), vehicle: water): 87 % of control and 101 % of control
- T/C (dose: 12.5 mg/kg/injection, schedule: Q01DX009 (ip), vehicle: water): 97 % of control
- T/C (dose: 50.0 mg/kg/injection, schedule: Q01DX009 (ip), vehicle: water): 87 % of control

Compound: [Fe+5].[O-][Cl+3]([O-])([O-])O.[O-]c1ccccc1C=NCCN1CC1.[O-]c1ccccc1C=NCCN1CC1
- T/C [3]: 100 % of control and 120 % of control
- T/C [4]: 116 % of control

Compound: CC1=CC(=NN=c2cc(C)n([O-])c(C)c2)C=C(C)[N+]1=O
- T/C (dose: 12.5 mg/kg/injection, schedule: Q01DX010 (ip), vehicle: saline): 91 % of control and 104 % of control and 114 % of control

Compound: OCC(F)(F)C(F)(F)C(F)(F)F
- T/C [9]: 100 % of control
- T/C (dose: 200.0 mg/kg/injection, schedule: Q01DX009 (ip), vehicle: saline with Tween-80): 104 % of control
- T/C (dose: 400.0 mg/kg/injection, schedule: Q01DX009 (ip), vehicle: saline with Tween-80): 109 % of control

Compound: Cc1nc2ccccc2c(Cl)c1C
- T/C (dose: 25.0 mg/kg/injection, schedule: Q01DX009 (ip), vehicle: Klucel (hydroxypropylcellulose) (HPC)): 102 % of control
- T/C [6]: 105 % of control
- T/C [1]: 103 % of control

Compound: Clc1c(Cl)c(CBr)c(Cl)c(CBr)c1Cl
- T/C (dose: 20.0 mg/kg/injection, schedule: Q01DX009 (ip), vehicle: Klucel (hydroxypropylcellulose) (HPC)): 100 % of control
- T/C (dose: 40.0 mg/kg/injection, schedule: Q01DX009 (ip), vehicle: Klucel (hydroxypropylcellulose) (HPC)): 95 % of control
- T/C (dose: 50.0 mg/kg/injection, schedule: Q01DX009 (ip), vehicle: saline sonified): 113 % of control
- T/C [7]: 100 % of control
- T/C (dose: 88.0 mg/kg/injection, schedule: Q04DX003 (ip), vehicle: Klucel (hydroxypropylcellulose) (HPC)): 108 % of control
- T/C (dose: 100.0 mg/kg/injection, schedule: Q01DX009 (ip), vehicle: saline sonified): 118 % of control
- T/C [8]: 110 % of control
- T/C (dose: 132.0 mg/kg/injection, schedule: Q04DX003 (ip), vehicle: Klucel (hydroxypropylcellulose) (HPC)): 91 % of control
- T/C (dose: 132.0 mg/kg/injection, schedule: Q04DX003 (ip), vehicle: saline sonified): 122 % of control
- T/C [10]: 150 % of control

Compound: CCOC(=O)NCNC(=O)OCC
- T/C (dose: 100.0 mg/kg/injection, schedule: Q04DX003 (ip), vehicle: saline sonified): 100 % of control
- T/C [10]: 108 % of control
- T/C (dose: 400.0 mg/kg/injection, schedule: Q04DX003 (ip), vehicle: saline sonified): 108 % of control

Compound: Nc1nc(N)c2cc(Sc3ccc4ccccc4c3)ccc2n1
- T/C [11]: 113 % of control
- T/C [9]: 123 % of control

Compound: CCCCCC[P+](c1ccccc1)(c1ccccc1)c1ccccc1
- T/C (dose: 6.25 mg/kg/injection, schedule: Q01DX009 (ip), vehicle: saline): 114 % of control
- T/C (dose: 6.25 mg/kg/injection, schedule: Q04DX003 (ip), vehicle: saline): 109 % of control
- T/C (dose: 12.5 mg/kg/injection, schedule: Q01DX009 (ip), vehicle: saline): 92 % of control
- T/C (dose: 12.5 mg/kg/injection, schedule: Q04DX003 (ip), vehicle: saline): 104 % of control

Compound: CN(CO)c1nc(N(C)CO)nc(N(C)CO)n1
- T/C (dose: 12.5 mg/kg/injection, schedule: Q01DX005 (ip), vehicle: saline): 104 % of control
- T/C (dose: 25.0 mg/kg/injection, schedule: Q01DX005 (ip), vehicle: saline): 113 % of control
- T/C (dose: 100.0 mg/kg/injection, schedule: Q01DX005 (ip), vehicle: saline): 155 % of control

Compound: [CH3][Sn]([CH3])([CH3])[O]C(=O)CCl
- T/C (dose: 0.75 mg/kg/injection, schedule: Q01DX009 (ip), vehicle: saline): 120 % of control
- T/C (dose: 1.5 mg/kg/injection, schedule: Q01DX009 (ip), vehicle: saline): 106 % of control

Compound: CCOC(=O)C(C#N)N=Nc1ccccc1 (stereo not given)
- T/C [3]: 90 % of control
- T/C [4]: 95 % of control
- T/C [5]: 90 % of control

Compound: O=[N+]([O-])c1ccc(S(=O)(=O)OCc2ccccc2OS(=O)(=O)c2ccc([N+](=O)[O-])cc2)cc1
- T/C [12]: 109 % of control
- T/C (dose: 25.0 mg/kg/injection, schedule: Q04DX003 (ip), vehicle: Klucel (hydroxypropylcellulose) (HPC)): 110 % of control
- T/C [11]: 114 % of control
- T/C [7]: 100 % of control
- T/C [9]: 114 % of control
- T/C [8]: 95 % of control

Compound: O=C(NC(=O)c1c(F)cccc1F)Nc1ccc(Br)cn1
- T/C [12]: 99 % of control
- T/C [11]: 92 % of control
- T/C [9]: 92 % of control
